Converted amounts (≈) assume the structure as drawn.
How the values were obtained:
Experiment in all cases: ≥ marks a high value that may be exact or a test limit, other limits are often not marked, values filed in µg/mL are converted to µM
[1] = system: Staphylococcus aureus ATCC 25923
[2] = system: Staphylococcus aureus ATCC 33591
[3] = system: Staphylococcus epidermidis ATCC 35984
[4] = system: Bacillus subtilis KCTC 3068
[5] = system: Enterococcus faecalis ATCC 51575
[6] = system: Enterococcus faecalis KCCM 29212
[7] = system: Enterococcus faecium ATCC 51559
[8] = system: Enterococcus faecium KCCM 12118
[9] = system: Escherichia coli KCTC 1682
[10] = system: Pseudomonas aeruginosa KCTC 1637
[11] = system: Salmonella typhimurium KCTC 1926
[12] = system: Staphylococcus aureus KCCM 40510
[13] = system: Staphylococcus aureus KCTC 1621
[14] = system: Staphylococcus epidermidis KCTC 1917
[15] = system: Pseudomonas aeruginosa ATCC 27853

Row | MIC [1] [µM] | MIC [2] [µM] | MIC [3] [µM] | MIC [4] [µM] | MIC [5] [µM] | MIC [6] [µM] | MIC [7] [µM] | MIC [8] [µM] | MIC [9] [µM] | MIC [10] [µM] | MIC [11] [µM] | MIC [12] [µM] | MIC [13] [µM] | MIC [14] [µM] | MIC [15] [µM] | SMILES
1 | 17.1 (≈ 32 µg/mL) | ≥ 48.5 | 3.03 (≈ 5.65 µg/mL) | – | – | – | – | – | – | – | – | – | – | – | – | CC[C@H](C)[C@H](NC(=O)CN)C(=O)NCC(=O)N[C@@H](CCCCN)C(=O)N[C@@H](Cc1ccccc1)C(=O)N[C@@H](CC(C)C)C(=O)N[C@@H](CCCCN)C(=O)N[C@@H](CCCCN)C(=O)N[C@@H](C)C(=O)N[C@@H](CCCCN)C(=O)N[C@@H](CCCCN)C(=O)N[C@@H](Cc1ccccc1)C(=O)NCC(=O)N[C@@H](CCCCN)C(=O)N[C@@H](C)C(=O)N[C@@H](Cc1ccccc1)C(=O)N[C@H](C(N)=O)C(C)C [GIGKFLKKAKKFGKAFV]
2 | – | – | – | 3.78 (≈ 4 µg/mL) | 30.3 (≈ 32 µg/mL) | 7.57 (≈ 7.99 µg/mL) | 1.89 (≈ 2 µg/mL) | 3.78 (≈ 4 µg/mL) | 7.57 (≈ 7.99 µg/mL) | 7.57 (≈ 7.99 µg/mL) | 7.57 (≈ 7.99 µg/mL) | 7.57 (≈ 7.99 µg/mL) | 7.57 (≈ 7.99 µg/mL) | 7.57 (≈ 7.99 µg/mL) | – | CC[C@H](C)[C@H](NC(=O)[C@H](CCCCN)NC(=O)[C@H](CCCN=C(N)N)NC(=O)[C@H](CC(C)C)NC(=O)[C@H](C)NC(=O)[C@H](CCCCN)NC(=O)[C@H](CS)NC(=O)[C@H](CC(C)C)NC(=O)[C@@H](N)CC(C)C)C(N)=O [LLCKALRKI]
3 | 190 (≈ 256 µg/mL) | ≥ 94.8 | ≥ 94.8 | – | – | – | – | – | – | – | – | – | – | – | 33.5 (≈ 45.2 µg/mL) | CC[C@H](C)[C@H](NC(=O)[C@H](CCCCN)NC(=O)[C@@H](NC(=O)[C@H](Cc1ccccc1)NC(=O)[C@H](C)NC(=O)[C@H](CCCCN)NC(=O)CNC(=O)[C@H](Cc1ccccc1)NC(=O)[C@H](CCCCN)NC(=O)[C@H](CCCCN)NC(=O)[C@H](C)N)C(C)C)C(=O)N[C@@H](CC(C)C)C(N)=O [AKKFGKAFVKIL]
4 | – | – | – | 3.78 (≈ 4 µg/mL) | 0.946 (≈ 0.999 µg/mL) | 0.946 (≈ 0.999 µg/mL) | 1.89 (≈ 2 µg/mL) | 7.57 (≈ 7.99 µg/mL) | 3.78 (≈ 4 µg/mL) | 7.57 (≈ 7.99 µg/mL) | 3.78 (≈ 4 µg/mL) | 7.57 (≈ 7.99 µg/mL) | 7.57 (≈ 7.99 µg/mL) | 3.78 (≈ 4 µg/mL) | – | CC[C@H](C)[C@H](NC(=O)[C@H](CS)NC(=O)[C@H](CC(C)C)NC(=O)[C@@H](N)CC(C)C)C(=O)N[C@@H](C)C(=O)N[C@@H](CC(C)C)C(=O)N[C@@H](CCCN=C(N)N)C(=O)N[C@@H](CCCCN)C(=O)N[C@@H](CCCCN)C(N)=O [LLCIALRKK]

From DBAASP
